Measurements from patent US4299834A, “8-Phenyl-purines and pharmaceutical compositions containing same” (Boehringer Ingelheim Gesellschaft mit beschrankter Haftung, priority 1979, dated 1981).

Columns and labels:
[1] = Acute Toxicity in white mice after oral administration; format: in vivo; details: mouse, in vivo, single dose of 300 mg/kg, observation time 14 days
Experimental: (§1) The acute toxicity of the test compounds was determined in white mice after oral administration of a single dose of 300 mg/kg (observation time: 14 days).

[2] = tested on: white mice; assay: as above; format: in vivo; details: single dose of 300 mg/kg, observation time 14 days
Experimental: as §1

With `COc1ccc(-c2nc3ncncc3[nH]2)c(OC)c1` [A, 8-(2,4-Dimethoxy-phenyl)-purine] the LD50 at 336 h [1] was > 300 mg/kg and the animals died [2] was 0 out of 6.
For `COc1cc(SC)ccc1-c1nc2ncncc2[nH]1` [B, 8-(2-Methoxy-4-methylmercapto-phenyl)-purine], the LD50 at 336 h [1] was > 300 mg/kg and the animals died [2] was 2 out of 6.
For `COc1ccc(-c2nc3ncncc3[nH]2)c(OCCSC)c1` [C, 8-[4-Methoxy-2-(2-methylmercapto-ethoxy)-phenyl]purine], the LD50 at 336 h [1] was > 300 mg/kg and the animals died [2] was 0 out of 6.
In the case of `COc1ccc(-c2nc3ncncc3[nH]2)c(OCC[S+](C)[O-])c1` (stereo not drawn) [D, 8-[4-Methoxy-2-(2-methylsulfinyl-ethoxy)-phenyl]purine], the LD50 at 336 h [1] is reported as > 300 mg/kg and the animals died [2] is reported as 0 out of 6.
For `COc1cc(Cl)ccc1-c1nc2ncncc2[nH]1` [G, 8-(4-Chloro-2-methoxy-phenyl)-purine], the LD50 at 336 h [1] was > 300 mg/kg and the animals died [2] was 1 out of 6.
For `COc1cc([S+](C)[O-])ccc1-c1nc2ncncc2[nH]1` (stereo not drawn) [H, 8-(2-Methoxy-4-methylsulfinyl-phenyl)-purine], the LD50 at 336 h [1] was ~300 mg/kg and the animals died [2] was 3 out of 6.
